Earlier results, collected in patent US10493103B2, “Peroxide formulations and methods and applicators for using the same” (ACLARIS THERAPEUTICS, INC., priority 2014, dated 2019).
Like-named read-outs stand apart in the source and are kept apart here. Each block holds one compound with its values, some of them ahead of it.

Test system: seborrheic keratosis
[1] = applied once daily for 16 weeks

SMILES: CCOC(=O)c1ccc(C#Cc2ccc3c(c2)C(C)(C)CCS3)nc1 [tazarotene cream, tazarotene]
effectiveness in seborrheic keratosis [1]: ineffective

complications of therapy (applied twice daily): burning, pruritus and redness
SMILES: CCOC(=O)c1ccc(C#Cc2ccc3c(c2)C(C)(C)CCS3)nc1 [tazarotene 0.1%, tazarotene]
subjects with efficacy (applied twice daily, off-label, 7/15 subjects): 47%

SMILES: C=C1CC[C@H](O)C/C1=C/C=C1\CCC[C@]2(C)[C@@H]([C@H](C)CCCC(C)C)CC[C@@H]12 [topical vitamin D3 ointment, vitamin D3]
patients with an 80% or more improvement in lesions (once or twice daily for an average of 7.3 months (range 3-12 months)): 30%

SMILES: CC(O)C(=O)O.N (stereo not shown) [ammonium lactate]
effectiveness in seborrheic keratosis (in vivo): ineffective

SMILES: C=C1/C(=C\C=C2/CCC[C@]3(C)[C@@H]([C@H](C)/C=C/[C@@H](O)C4CC4)CC[C@@H]23)C[C@@H](O)C[C@@H]1O [calcipotriene ointment, calcipotriene]
effectiveness in seborrheic keratosis [1]: ineffective

SMILES: CC(C)Cn1cnc2c(N)nc3ccccc3c21 [imiquimod cream, imiquimod]
effectiveness in seborrheic keratosis [1]: ineffective
